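Cultured in 96-well plates, cells were exposed to test compound for 48 hours across five concentrations. GI50 = concentration required for 50% inhibition of growth.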 Activity calls are given as the source filed them. Cut-off read from the data, not from the text of the source: active = GI50 up to about 1.1 µM and inactive = higher.
How the values were obtained:
Assay in all cases: inhibition of tumour cell growth, NCI panel, 48 h
[1] = test system: 786-0
[2] = test system: A498
[3] = test system: A549
[4] = test system: ACHN
[5] = test system: BT-549
[6] = test system: CAKI-1
[7] = test system: CCRF-CEM
[8] = test system: COLO 205
[9] = test system: DU-145
[10] = test system: EKVX
[11] = test system: HCC 2998
[12] = test system: HCT-116
[13] = test system: HCT-15
[14] = test system: HL-60
[15] = test system: HOP-62
[16] = test system: HOP-92
[17] = test system: HT-29
[18] = test system: Hs-578T
[19] = test system: IGROV-1
[20] = test system: K562
[21] = test system: KM12
[22] = test system: LOX IMVI
[23] = test system: M14
[24] = test system: MCF7
[25] = test system: MDA-MB-231
[26] = test system: MDA-MB-435
[27] = test system: MDA-N
[28] = test system: MOLT-4
[29] = test system: Malme-3M
[30] = test system: NCI-H226
[31] = test system: NCI-H23
[32] = test system: NCI-H460
[33] = test system: NCI-H522
[34] = test system: NCI/ADR-RES
[35] = test system: OVCAR-3
[36] = test system: OVCAR-4
[37] = test system: OVCAR-5
[38] = test system: OVCAR-8
[39] = test system: PC-3
[40] = test system: RPMI-8226
[41] = test system: RXF 393
[42] = test system: SF-268
[43] = test system: SF-295
[44] = test system: SF-539
[45] = test system: SK-MEL-28
[46] = test system: SK-MEL-2
[47] = test system: SK-MEL-5
[48] = test system: SK-OV-3
[49] = test system: SN12C
[50] = test system: SNB-19
[51] = test system: SNB-75
[52] = test system: SR
[53] = test system: SW-620
[54] = test system: T47D
[55] = test system: TK-10
[56] = test system: U-251
[57] = test system: UACC-257
[58] = test system: UACC-62
[59] = test system: UO-31

SMILES: Nc1onc2c1Cc1c(noc1N)-c1ccccc1-2
- GI50 [1]: 79.3 µM (inactive)
- GI50 [2]: 26.7 µM (inactive)
- GI50 [3]: 71 µM (inactive)
- GI50 [4]: 35.4 µM (inactive)
- GI50 [5]: 17.5 µM (inactive)
- GI50 [6]: 44.4 µM (inactive)
- GI50 [7]: 42.7 µM (inactive)
- GI50 [8]: 58.6 µM (inactive)
- GI50 [9]: > 100 µM (inactive)
- GI50 [10]: 16.3 µM (inactive)
- GI50 [11]: > 100 µM (inactive)
- GI50 [12]: 48.9 µM (inactive)
- GI50 [13]: 43.8 µM
- GI50 [14]: 19.8 µM (inactive)
- GI50 [15]: > 100 µM (inactive)
- GI50 [16]: 37.2 µM (inactive)
- GI50 [17]: 80.4 µM (inactive)
- GI50 [18]: 26.9 µM (inactive)
- GI50 [19]: 54.5 µM (inactive)
- GI50 [20]: 41.3 µM (inactive)
- GI50 [21]: 49.8 µM (inactive)
- GI50 [22]: 32.6 µM (inactive)
- GI50 [23]: 84.3 µM (inactive)
- GI50 [24]: 49.7 µM (inactive)
- GI50 [25]: 35.1 µM (inactive)
- GI50 [26]: 25.2 µM (inactive)
- GI50 [27]: 48.9 µM (inactive)
- GI50 [28]: 74.8 µM (inactive)
- GI50 [29]: 41.9 µM (inactive)
- GI50 [30]: > 100 µM (inactive)
- GI50 [31]: 53.6 µM (inactive)
- GI50 [32]: > 100 µM (inactive)
- GI50 [33]: 27.4 µM (inactive)
- GI50 [34]: > 100 µM (inactive)
- GI50 [35]: 53.7 µM (inactive)
- GI50 [36]: > 100 µM (inactive)
- GI50 [37]: > 100 µM (inactive)
- GI50 [38]: 59.6 µM (inactive)
- GI50 [39]: 48.3 µM (inactive)
- GI50 [40]: 53.7 µM (inactive)
- GI50 [41]: 58.1 µM (inactive)
- GI50 [42]: 54 µM (inactive)
- GI50 [43]: 65.2 µM (inactive)
- GI50 [44]: 96.8 µM (inactive)
- GI50 [45]: > 100 µM (inactive)
- GI50 [46]: 61.2 µM (inactive)
- GI50 [47]: 36.6 µM (inactive)
- GI50 [48]: 45.1 µM (inactive)
- GI50 [49]: 85.3 µM (inactive)
- GI50 [50]: > 100 µM (inactive)
- GI50 [51]: 33.2 µM (inactive)
- GI50 [52]: 35.2 µM (inactive)
- GI50 [53]: 57 µM (inactive)
- GI50 [54]: 27 µM (inactive)
- GI50 [55]: > 100 µM (inactive)
- GI50 [56]: 57.5 µM (inactive)
- GI50 [57]: 74.3 µM (inactive)
- GI50 [58]: 27.4 µM (inactive)
- GI50 [59]: 53.6 µM (inactive)

SMILES: COc1cc(-c2oc3c(OC)c(O)cc(O)c3c(=O)c2OC)ccc1O
- GI50 [1]: 16.9 µM (inactive)
- GI50 [2]: 4.2 µM (inactive)
- GI50 [3]: 7.29 µM (inactive)
- GI50 [4]: 3.99 µM (inactive)
- GI50 [5]: 5.18 µM (inactive)
- GI50 [6]: 3.13 µM (inactive)
- GI50 [7]: 3.12 µM (inactive)
- GI50 [8]: 29.1 µM (inactive)
- GI50 [9]: 7.06 µM (inactive)
- GI50 [10]: 21.8 µM (inactive)
- GI50 [11]: 10.9 µM (inactive)
- GI50 [12]: 6.4 µM (inactive)
- GI50 [13]: 3.67 µM
- GI50 [14]: 3.56 µM (inactive)
- GI50 [15]: 3 µM (inactive)
- GI50 [16]: 3.83 µM (inactive)
- GI50 [17]: 37.4 µM (inactive)
- GI50 [18]: 1.84 µM (inactive)
- GI50 [19]: 3.09 µM (inactive)
- GI50 [20]: 5.12 µM (inactive)
- GI50 [21]: 10 µM (inactive)
- GI50 [22]: 4.12 µM (inactive)
- GI50 [23]: 4.12 µM (inactive)
- GI50 [24]: 19.7 µM (inactive)
- GI50 [25]: 7.76 µM (inactive)
- GI50 [26]: 7.35 µM (inactive)
- GI50 [27]: 10.6 µM (inactive)
- GI50 [28]: 4.92 µM (inactive)
- GI50 [29]: > 47.8 µM (inactive)
- GI50 [30]: 12.9 µM (inactive)
- GI50 [31]: 16.7 µM (inactive)
- GI50 [32]: 6.95 µM (inactive)
- GI50 [33]: 8.17 µM (inactive)
- GI50 [34]: 10.8 µM (inactive)
- GI50 [35]: 2.68 µM (inactive)
- GI50 [36]: 8.41 µM (inactive)
- GI50 [37]: 22.3 µM (inactive)
- GI50 [38]: 8.17 µM (inactive)
- GI50 [39]: 6.44 µM (inactive)
- GI50 [40]: 4.09 µM (inactive)
- GI50 [41]: 3.73 µM (inactive)
- GI50 [42]: 3.08 µM (inactive)
- GI50 [43]: 17.5 µM (inactive)
- GI50 [44]: 5.47 µM (inactive)
- GI50 [45]: 12.9 µM (inactive)
- GI50 [46]: 2.75 µM (inactive)
- GI50 [47]: 6.31 µM (inactive)
- GI50 [48]: 1.55 µM (inactive)
- GI50 [49]: 13.1 µM (inactive)
- GI50 [50]: 41.4 µM (inactive)
- GI50 [51]: 4.02 µM (inactive)
- GI50 [52]: 3.24 µM (inactive)
- GI50 [53]: 13.8 µM (inactive)
- GI50 [54]: 2.38 µM (inactive)
- GI50 [55]: 12.4 µM (inactive)
- GI50 [56]: 3.66 µM (inactive)
- GI50 [57]: 26 µM (inactive)
- GI50 [58]: 3.61 µM (inactive)
- GI50 [59]: 3.08 µM (inactive)
